According to patent publication US4906662A, “Phenol derivatives, their preparation and the use thereof” (Otsuka Pharmaceutical Factory, Inc., priority 1986, dated 1990):
Where a name gives a salt, the structure may show the parent alone.

Key:
[1] = molecular target: T1, 5-lipoxygenase (Cavia porcellus, UniProt A0A286X958); test: 5-Lipoxygenase inhibitory activity (5-HETE formation in guinea pig peritoneal exudate cells); type: cell-based; settings: read-out: Percent inhibition of 5-lipoxygenase
T1 construct: endogenous in cells; host or cells: guinea pig peritoneal exudate cells (casein-elicited), intact cell suspension
T1 sequence (A0A286X958 1-674): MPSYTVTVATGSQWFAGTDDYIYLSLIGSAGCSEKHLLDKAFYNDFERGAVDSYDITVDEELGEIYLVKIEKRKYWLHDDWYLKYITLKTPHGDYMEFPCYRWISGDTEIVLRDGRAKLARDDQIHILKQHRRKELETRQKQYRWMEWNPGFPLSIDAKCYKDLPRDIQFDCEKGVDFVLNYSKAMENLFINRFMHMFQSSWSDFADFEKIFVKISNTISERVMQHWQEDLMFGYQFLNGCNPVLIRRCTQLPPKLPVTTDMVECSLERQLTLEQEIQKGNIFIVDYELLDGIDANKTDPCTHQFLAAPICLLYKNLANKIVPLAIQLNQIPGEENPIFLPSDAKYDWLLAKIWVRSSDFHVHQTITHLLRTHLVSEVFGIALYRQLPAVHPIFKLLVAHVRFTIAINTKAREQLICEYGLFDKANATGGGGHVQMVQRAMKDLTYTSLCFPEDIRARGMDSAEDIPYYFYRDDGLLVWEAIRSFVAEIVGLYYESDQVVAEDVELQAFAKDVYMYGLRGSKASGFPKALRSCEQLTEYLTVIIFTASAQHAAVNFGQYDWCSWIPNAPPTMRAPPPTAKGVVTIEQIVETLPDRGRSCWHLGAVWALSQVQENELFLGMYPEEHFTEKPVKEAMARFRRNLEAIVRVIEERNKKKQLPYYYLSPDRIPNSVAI
Description: (J. Biol. Chem., 256, 4156 (1981)) and to the method of Ochi et al. (J. Biol. Chem., 258, 5754 (1983). More specifically, 2% casein was intraperitoneally given to a guinea pig, which was bleeded to death 14 to 16 hours thereafter. The peritoneal cavity was washed to collect exudate cells, which were suspended in a phosphate buffer containing 1 mM CaCl2 and 5.5 mM glucose to a concentration of 2.5×10^7 cells/ml. The cell suspension was incubated at 30° C. for 2 minutes. The test compound was then added to the cell suspension, followed by incubation for 2 minutes. With addition of 10 μM of A23187 first and then 10 μM of ^14 C-arachidonic acid to the resulting suspension. Then, the suspension was incubated for 3 minutes. […] The arachidonic acid, 5(S)-hydroxy-6,8,11,14-eicosatetraenoic acid (5-HETE) and other portions were thereafter scraped off, and ^14 C was counted by a scintillator.

[2] = test system: carrageenin-induced paw edema; test: Anti-inflammatory activity: inhibition of carrageenin-induced paw edema in rats; type: in vivo, rat (S.D. strain, male); settings: po, read-out: Percent inhibition of edema; for inhibition in vivo at 100 mg/kg: 100 mg/kg p.o., rat, 3 hours after carrageenin
Description: (1) Anti-inflammatory activity:inhibition of carrageenin-induced paw edema in rats The compound was tested for the above activity according to the method of Winter et al. [Proc. Soc. […] One hour after the test compound was orally given to the animal, 0.1 ml of 1% carrageenin solution was subcutaneously injected into the right footpad. The paw volume was measured 3 hours thereafter, and the resulting increase in the volume was calculated based on the volume before the injection of carrageenin solution. The percent inhibition was determined in comparison with the increase in the control group.

inhibition at 1 µM [1] [%] | inhibition at 10 µM [1] [%] | Compound | inhibition in vivo at 100 mg/kg [2] [%] | inhibition in vivo at 5 mg/kg ([2]; Rattus norvegicus, 3 h) [%]
27 | 67 | CC(=O)c1ccc(Nc2cc(C(C)(C)C)c(O)c(C(C)(C)C)c2)cc1 [Compound 9] |  | 
 |  | CC(C)(C)c1cc(Nc2ccccc2O)cc(C(C)(C)C)c1O [Compound 3] | 25 | 
 |  | CC(C)(C)c1cc(Nc2ccc(Cl)cc2CO)cc(C(C)(C)C)c1O [Compound 38, 2,6-di-tert-butyl-4-(4-chloro-2-hydroxymethylphenylamino)phenol] | 79 | 
52 | 86 | CC(C)(C)c1cc(Nc2ccc(CCO)cc2)cc(C(C)(C)C)c1O [Compound 33] |  | 
15 | 57 | CC(C)(C)c1cc(Nc2ccc(N)cc2)cc(C(C)(C)C)c1O [Compound 14] | 42 | 
 |  | COc1ccc2c(c1)c(CC(=O)O)c(C)n2C(=O)c1ccc(Cl)cc1 [indomethacin, reference compound] |  | 62
91 | 95 | Cc1ccc(Nc2cc(C)c(O)c(C)c2C)cc1 [Compound 81, 2,3,6-trimethyl-4-(4-methylphenylamino)phenol] |  | 
 |  | CC(C)(C)c1cc(Nc2cccc(C(F)(F)F)c2)cc(C(C)(C)C)c1O [Compound 4] | 16 | 
33 | 71 | CC(C)(C)c1cc(Nc2ccc(C(=O)O)cc2)cc(C(C)(C)C)c1O [Compound 26] |  | 
 | 49 | COc1ccc(Nc2cc(C(C)(C)C)c(O)c(C(C)(C)C)c2)cc1 [Compound 7] | 41 | 
55 | 90 | Cc1cc(Nc2ccc(CC(=O)O)cc2)c2c(c1O)CCCC2 [Compound 104] |  | 
28 | 67 | CC(C)(C)c1cc(Nc2ccc(CCCC(=O)O)cc2)cc(C(C)(C)C)c1O [Compound 22] |  | 
34 | 63 | CC(C)(C)c1cc(Nc2ccccc2CO)cc(C(C)(C)C)c1O [Compound 32, 2,6-di-tert-butyl-4-(2-hydroxymethylphenylamino)phenol] | 74 | 
95 | 95 | COc1ccc(Nc2cc(C)c(O)c(C)c2C)cc1 [Compound 91, 2,3,6-trimethyl-4-(4-methoxyphenylamino)phenol] |  | 
26 | 51 | CC(C)(C)c1cc(Nc2cccc(C(=O)O)c2)cc(C(C)(C)C)c1O [Compound 24, 2,6-di-tert-butyl-4-(3-carboxyphenylamino)phenol] |  | 
42 | 90 | Cc1cc(Nc2ccc(C(=O)O)cc2)c(C)c(C)c1O [Compound 102] |  | 
89 | 95 | COC(=O)Cc1ccc(Nc2cc(C)c(O)c3c2CCCC3)cc1 [Compound 87, 2-methyl-4-(4-methoxycarbonylmethylphenylamino)-5,6,7,8-tetrahydronaphthol] |  | 
 |  | CCCCCCNC(=O)/C=C/c1cccc(Nc2cc(C(C)(C)C)c(O)c(C(C)(C)C)c2)c1 [Compound 66] | 15 | 
87 | 93 | Cc1cc(Nc2ccccc2)c(C)c(C)c1O [Compound 79, 2,3,6-trimethyl-4-phenylaminophenol] | 47 | 
 |  | CC(C)(C)c1cc(Nc2ccc(CC(=O)NN)cc2)cc(C(C)(C)C)c1O [Compound 76, 2,6-di-tert-butyl-4-(4-hydrazinocarbonylmethylphenylamino)phenol] | 47 | 
24 | 36 | CC(C)(C)c1cc(Nc2ccc(F)cc2)cc(C(C)(C)C)c1O [Compound 1, 2,6-di-tert-butyl-4-(4-fluorophenylamino)phenol] | 57 | 
 |  | CC(C)(C)c1cc(Nc2ccc(S(C)(=O)=O)cc2)cc(C(C)(C)C)c1O [Compound 92] | 35 | 

inhibition at 1 µM [1] [%] | inhibition at 10 µM [1] [%] | Compound | inhibition in vivo at 100 mg/kg [2] [%] | inhibition in vivo at 5 mg/kg ([2]; Rattus norvegicus, 3 h) [%]
19 | 50 | CN(C)c1ccc(Nc2cc(C(C)(C)C)c(O)c(C(C)(C)C)c2)cc1 [Compound 42, 4-(4-dimethylaminophenylamino)-2,6-di-tert-butylphenol dihydrochloride] |  | 
 |  | CC(C)(C)c1cc(Nc2ccc(CC(=O)N3CCOCC3)cc2)cc(C(C)(C)C)c1O [Compound 71] | 20 | 
 |  | CC(C)(C)c1cc(Nc2ccccc2/C=C/C(=O)O)cc(C(C)(C)C)c1O [Compound 48, 2-(3,5-di-tert-butyl-4-hydroxyphenylamino)cinnamic acid] | 62 | 
 |  | CCCCCCCCCNC(=O)c1ccc(Nc2cc(C(C)(C)C)c(O)c(C(C)(C)C)c2)cc1 [Compound 63] | 29 | 
 |  | CCCCCC(=O)/C=C/c1cccc(Nc2cc(C(C)(C)C)c(O)c(C(C)(C)C)c2)c1 [Compound 51] | 10 | 
50 | 88 | CC(C)(C)c1cc(Nc2cccc(CO)c2)cc(C(C)(C)C)c1O [Compound 31, 2,6-di-tert-butyl-4-(3-hydroxymethylphenylamino)phenol hydrochloride] | 33 | 
 |  | CC(C)(C)c1cc(Nc2ccc(C#N)cc2)cc(C(C)(C)C)c1O [Compound 28, 2,6-di-tert-butyl-4-(4-cyanophenylamino)phenol] | 58 | 
 | 66 | CC(C)(C)c1cc(Nc2ccccc2C(=O)O)cc(C(C)(C)C)c1O [Compound 25, 2,6-di-tert-butyl-4-(2-carboxyphenylamino)phenol] |  | 
16 | 51 | Cc1ccc(Nc2cc(C(C)(C)C)c(O)c(C(C)(C)C)c2)cc1 [Compound 20] |  | 
90 | 96 | Cc1cc(Nc2ccc(Cl)cc2)c(C)c(C)c1O [Compound 94, 2,3,6-trimethyl-4-(4-chlorophenylamino)phenol] |  | 
 |  | CC(C)(C)c1cc(Nc2cccc(C(N)=O)c2)cc(C(C)(C)C)c1O [Compound 89] | 31 | 
 |  | CC(C)(C)c1cc(Nc2ccccc2Cl)cc(C(C)(C)C)c1O [Compound 2] | 12 | 
 |  | CC(C)(C)c1cc(Nc2ccc(S(N)(=O)=O)cc2)cc(C(C)(C)C)c1O [Compound 93] | 16 | 
78 | 94 | Cc1cc(Nc2ccccc2)c2c(c1O)CCCC2 [Compound 80, 2-methyl-4-phenylamino-5,6,7,8-tetrahydronaphthol] |  | 
41 | 91 | Cc1cc(Nc2cccc(CC(=O)O)c2)c(C)c(C)c1O [Compound 103] |  | 
37 | 58 | CC(C)(C)c1cc(Nc2cc(Cl)ccc2O)cc(C(C)(C)C)c1O [Compound 19] |  | 
19 | 71 | Cc1ccc(Nc2cc(C(C)(C)C)c(O)c(C(C)(C)C)c2)c(C(=O)O)c1 [Compound 29] |  | 
 |  | CSc1ccccc1Nc1cc(C(C)(C)C)c(O)c(C(C)(C)C)c1 [Compound 12] | 41 | 
93 | 92 | COC(=O)Cc1ccc(Nc2cc(C)c(O)c(C)c2C)cc1 [Compound 86, 4-(4-methoxycarbonylmethylphenylamino)-2,3,6-trimethylphenol] |  | 
45 |  | CC(Cc1ccc(O)c(O)c1)C(C)Cc1ccc(O)c(O)c1 (stereo not drawn) [NDGA, nordihydroguaiaretic acid, reference compound] |  | 
21 | 46 | CC(C)(C)c1cc(Nc2ccc(CC(=O)O)cc2)cc(C(C)(C)C)c1O [Compound 5] |  | 
75 | 95 | CCOC(=O)/C=C/c1cccc(Nc2cc(C)c(O)c(C)c2C)c1 [Compound 52, ethyl 3-(4-hydroxy-2,3,5-trimethylphenylamino)cinnamate hydrochloride] |  | 
